Data taken from paper PMC7539012, “Hyperphosphorylated tau aggregation and cytotoxicity modulators screen identified prescription drugs linked to Alzheimer's disease and cognitive functions” (Scientific Reports, 2020).
Counter-ions that a name gives are not always drawn.

Test system: T1, 1N4R p-tau
T1 construct: made in house; host or cells: E. coli (PIMAX system)
Assay: p-tau aggregation modulator screen of 1280-compound library (ThS fluorescence net change over 16 h);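 for ThS net change: 30 µM compound with 6 µM p-tau over 16 h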
Format: biochemical
Parameters: key to PTAI>2SD: *: PTAI>2SD; key to PTAI>3SD: *: PTAI>3SD
Details: not given

In order of rising ThS net change:
1. c1ccc2c(c1)Nc1ccccc1S2 [Phenothiazine]  421
2. C[C@]12CCC3[C@@H](CC[C@@H]4C[C@H](O)CC[C@]34C)[C@@H]1CCC2=O (stereo partly drawn) [3-alpha-Hydroxy-5-beta-androstan-17-one]  426
3. COc1ccc2c3c1O[C@H]1C[C@@H](O)C=C[C@@]31CCN(C)C2 [Galanthamine hydrobromide]  448
4. CCCCc1ccc2[nH]c(NC(=O)OC)nc2c1 [Parbendazole]  465
5. C#C[C@]1(O)CC[C@H]2[C@@H]3CCC4=CC(=O)CC[C@]4(C)[C@H]3CC[C@@]21C [Ethisterone]  490
6. CC[C@H](C)[C@H]1O[C@]2(CC[C@@H]1C)C[C@@H]1C[C@@H](C/C=C(\C)[C@@H](O[C@H]3C[C@H](OC)[C@@H](O[C@H]4C[C@H](OC)[C@@H](O)[C@H](C)O4)[C@H](C)O3)[C@@H](C)/C=C/C=C3\CO[C@@H]4[C@H](O)C(C)=C[C@@H](C(=O)O1)[C@]34O)O2 [Ivermectin]  543

Same assay, conditions: 1280-compound library screen; ThS fluorescence net change over 16 h

In order of rising ThS net change:
1. Cc1c(NC(C)C)c(=O)n(-c2ccccc2)n1C.Cl [Isopyrin hydrochloride]  380
2. C#Cc1cccc(Nc2ncnc3cc(OCCOC)c(OCCOC)cc23)c1 [Erlotinib]  387
3. CC1(C)S[C@@H]2[C@H](NC(=O)[C@H](N)c3ccc(O)cc3)C(=O)N2[C@H]1C(=O)O [Amoxicillin]  388
4. CCCC[N+]1(C)[C@@H]2C[C@@H](OC(=O)[C@H](CO)c3ccccc3)C[C@H]1[C@@H]1O[C@@H]12.[Br-] (stereo partly drawn) [Butylscopolammonium (n-) bromide]  388
5. CN1CCCCC1CCN1c2ccccc2Sc2ccc([S+](C)[O-])cc21 (stereo not drawn) [Mesoridazine besylate]  391
6. CS(=O)(=O)c1ccc(C2=C(c3ccccc3)C(=O)OC2)cc1 [Rofecoxib]  396
7. CCCCNc1ccc(C(=O)OCCOCCOCCOCCOCCOCCOCCOCCOCCOC)cc1 [Benzonatate]  398
8. N=C(N)NC(=O)c1nc(Cl)c(N)nc1N [Amiloride hydrochloride dihydrate]  401
9. N=C(N)N/N=C/c1c(Cl)cccc1Cl [Guanabenz acetate]  405
10. CC(=O)NC[C@H]1CN(c2ccc(N3CCOCC3)c(F)c2)C(=O)O1 [Linezolid]  405
11. CN(C)CCOc1ccc(/C(=C(/CCCl)c2ccccc2)c2ccccc2)cc1 [Toremifene]  406
12. CC(C)Cc1ccc([C@H](C)C(=O)O)cc1 [S-(+)-ibuprofen]  406
13. NCC(CC(=O)O)c1ccc(Cl)cc1 (racemic) [Baclofen (R,S)]  407
14. CC(C)NCC(O)c1ccc2ccccc2c1.Cl (stereo not drawn) [Pronethalol hydrochloride]  411

Same assay, conditions: 1280-compound library screen; […]

In order of rising ThS net change:
1. CN[C@@H]1[C@@H](O)[C@@H](O[C@@H]2[C@@H](O)[C@H](O[C@H]3OC(CN)=CC[C@H]3N)[C@@H](N)C[C@H]2N)OC[C@]1(C)O [Sisomicin sulfate]  381
2. CN[C@@H]1C[C@@H](c2ccc(Cl)c(Cl)c2)c2ccccc21 [Indatraline hydrochloride]  388
3. C[n+]1ccccc1/C=N/O [Pralidoxime chloride]  397
4. C[C@]12Cc3c[nH]nc3C[C@@H]1CC[C@@H]1[C@@H]2CC[C@@]2(C)[C@H]1CC[C@]2(C)O [Stanozolol]  403
5. CNCC(O)c1ccc(O)cc1 (racemic) [(+,-)-Synephrine]  410

Same assay, conditions: flag: p-tau aggregation inhibitor, ThS net change more than 2 SD from mean

In the case of `C[C@H]1c2cccc(O)c2C(=O)C2=C(O)[C@]3(O)C(=O)C(C(N)=O)=C(O)[C@@H](N(C)C)[C@@H]3[C@@H](O)[C@@H]21` [Doxycycline hydrochloride], the “PTAI>2SD” value is reported as “*”.
`COC(=O)Nc1nc2ccc(Sc3ccccc3)cc2[nH]1` [Fenbendazole] was tested, and the “PTAI>2SD” value was “*”.

Same assay, conditions: flag: p-tau aggregation inhibitor, ThS net change more than 3 SD from mean

In the case of `COc1ccc(-c2cc(=S)ss2)cc1` [Anethole-trithione], the “PTAI>3SD” value is reported as “*”.

Same assay, conditions: library screen, ThS fluorescence net change over 16 h with p-tau

In order of rising ThS net change:
1. COc1ccc(-c2cc(=S)ss2)cc1 [Anethole-trithione]  46
2. COC(=O)Nc1nc2ccc(Sc3ccccc3)cc2[nH]1 [Fenbendazole]  148
3. C[C@H]1c2cccc(O)c2C(=O)C2=C(O)[C@]3(O)C(=O)C(C(N)=O)=C(O)[C@@H](N(C)C)[C@@H]3[C@@H](O)[C@@H]21 [Doxycycline hydrochloride]  174
4. O=C(Nc1cccc2c(=O)cc(-c3nnn[nH]3)oc12)c1ccc(OCCCCc2ccccc2)cc1 [Pranlukast]  288
5. CS(=O)(=O)Nc1ccc([N+](=O)[O-])cc1Oc1ccccc1 [Nimesulide]  288
6. CN1CCN(CC(=O)N2c3ccccc3C(=O)Nc3cccnc32)CC1 [Pirenzepine dihydrochloride]  322
7. Cc1scc2c1N(C(=O)CN1CCN(C)CC1)c1ccccc1NC2=O [Telenzepine dihydrochloride]  326

Same assay, conditions: p-tau aggregation modulator screen of 1280-compound library; ThS fluorescence net change

In order of rising ThS net change:
1. NCCc1cc[nH]n1 [Betazole hydrochloride]  333
2. NC[C@@H]1O[C@H](O[C@H]2[C@@H](O)[C@H](O[C@@H]3[C@@H](O)[C@H](N)C[C@H](N)[C@H]3O[C@H]3O[C@H](CN)[C@@H](O)[C@H](O)[C@H]3N)O[C@@H]2CO)[C@H](N)[C@@H](O)[C@@H]1O.O=S(=O)(O)O [Neomycin sulfate]  340
3. CCC(=O)OCC(=O)[C@@]1(OC(=O)CC)[C@@H](C)C[C@H]2[C@@H]3CCC4=CC(=O)C=C[C@]4(C)[C@@]3(Cl)[C@@H](O)C[C@@]21C [Beclomethasone dipropionate]  354
4. Cc1cc(CC(=O)[O-])n(C)c1C(=O)c1ccc(Cl)cc1.[Na+] [Zomepirac sodium salt]  356
5. CC(C(O)c1ccc(O)cc1)N1CCC(Cc2ccccc2)CC1.O=C(O)C(O)C(O)C(=O)O (stereo not drawn) [Ifenprodil tartrate]  361
6. CCN(CC)CCOC(=O)c1ccc(N)cc1 [Procaine hydrochloride]  362
7. CN(C)CCN1C(=O)c2ccccc2N(C)c2ccccc21.Cl [Dibenzepine hydrochloride]  368
8. Cc1cnc(C(=O)O)c[n+]1[O-] [Acipimox]  369
9. COc1ccc2cc([C@H](C)C(=O)O)ccc2c1 [Naproxen]  371
10. CC1=C(/C=C/C(C)=C/C=C/C(C)=C/C(=O)O)C(C)(C)CCC1 [Retinoic acid]  374
11. CC(C(=O)O)c1cccc(C(=O)c2ccccc2)c1 (stereo not drawn) [Ketoprofen]  376

Same assay, conditions: p-tau aggregation modulator screen of 1280-compound library; […]

In order of falling ThS net change:
1. CCC1=C[C@@H]2C[N@]3CCc4c([nH]c5ccccc45)[C@@](C(=O)OC)(C2)[C@@H]13 [Catharanthine]  374
2. COc1cccc([C@@]2(O)CCCC[C@@H]2CN(C)C)c1.Cl [Tramadol hydrochloride]  373
3. CCC(C)(CN(C)C)OC(=O)c1ccccc1.Cl (stereo not drawn) [Amyleine hydrochloride]  365
4. CN1CCCN(C(c2ccccc2)c2ccc(Cl)cc2)CC1.Cl.Cl (stereo not drawn) [Homochlorcyclizine dihydrochloride]  343
5. CCN(CC)CCCC(C)Nc1ccnc2cc(Cl)ccc12 (stereo not drawn) [Chloroquine diphosphate]  338

Same assay, conditions: p-tau aggregation modulator screen of the compound library, ThS fluorescence net change

In order of rising ThS net change:
1. Cc1c(C)c2c(c(C)c1O)CCC(C)(C(=O)O)O2 (stereo not drawn) [Trolox]  413
2. Nc1ccc(S(=O)(=O)Nc2ccc(Cl)nn2)cc1 [Sulfachloropyridazine]  413
3. CN(C)CCN(Cc1ccccc1)c1ccccn1 [Tripelennamine hydrochloride]  414
4. CCCN(CCC)S(=O)(=O)c1ccc(C(=O)O)cc1 [Probenecid]  416
5. CN(C)CCn1nnnc1SCC1=C(C(=O)O)N2C(=O)[C@@H](NC(=O)Cc3csc(N)n3)[C@H]2SC1 [Cefotiam hydrochloride]  423
6. OCCOCCN1CCN(C2=Nc3ccccc3Sc3ccccc32)CC1 [Quetiapine hemifumarate]  424
7. O=S(=O)(O)CCS [Mesna]  424
8. O=C1[C@H]2CCCC[C@H]2C(=O)N1CCCCN1CCN(c2nsc3ccccc23)CC1 [Perospirone]  426
9. Cc1nc2ccc(CN(C)c3ccc(C(=O)N[C@@H](CCC(=O)O)C(=O)O)s3)cc2c(=O)[nH]1 [Raltitrexed]  443
10. CO/N=C(\C(=O)N[C@@H]1C(=O)N2C(C(=O)OC(C)OC(C)=O)=C(COC(N)=O)CS[C@H]12)c1ccco1 (stereo partly drawn) [Cefuroxime axetil]  445
11. Cn1c([N+](=O)[O-])cnc1COC(N)=O [Ronidazole]  445
12. C#C[C@]1(O)CC[C@H]2[C@@H]3CCc4cc(O)ccc4[C@H]3CC[C@@]21C [Ethinylestradiol]  451
13. CCc1c(C)[nH]c2c1C(=O)C(CN1CCOCC1)CC2 (stereo not drawn) [Molindone hydrochloride]  458
14. O=C(Cn1ccnc1[N+](=O)[O-])NCCO [Etanidazole]  461
15. C[C@]12CCC(=O)C=C1C=C[C@@H]1[C@@H]2CC[C@@]2(C)[C@H]1CC[C@@]21CCC(=O)O1 [Canrenone]  462
16. CC[C@H]1OC(=O)[C@H](C)[C@@H](O[C@H]2C[C@@](C)(OC)[C@@H](O)[C@H](C)O2)[C@H](C)[C@@H](O[C@@H]2O[C@H](C)C[C@H](N(C)C)[C@H]2O)[C@](C)(O)C[C@@H](C)CN(C)[C@H](C)[C@@H](O)[C@]1(C)O [Azithromycin]  467
17. C[C@@H]1C[C@H]2[C@@H]3CCC4=CC(=O)C=C[C@]4(C)[C@@]3(Cl)[C@@H](O)C[C@]2(C)[C@@]1(OC(=O)c1ccco1)C(=O)CCl [Mometasone furoate]  484
18. Cc1c(OCC(F)(F)F)ccnc1C[S+]([O-])c1nc2ccccc2[nH]1 (stereo not drawn) [Lansoprazole]  510
19. NC(=O)OCC(O)COc1ccc(Cl)cc1 (stereo not drawn) [Chlorphensin carbamate]  516
20. CC(=O)CC(c1ccc([N+](=O)[O-])cc1)c1c(O)c2ccccc2oc1=O (stereo not drawn) [Acenocoumarol]  568
21. CC(C)(O)c1ccccc1CC[C@@H](SCC1(CC(=O)O)CC1)c1cccc(/C=C/c2ccc3ccc(Cl)cc3n2)c1 [Montelukast]  592
